From patent US11241434B2, “Compositions and methods for improving cognition in a subject” (Yale University, priority 2013, dated 2022)

Experiments:
[1] = system: Fyn (p-SFK) and eEF2 phosphorylation in cortical neurons; assay: Aβo-induced Fyn activation and eEF2 phosphorylation in cortical neurons (immunoblot); type: cell-based, mouse
Procedure: FIG. 2A: DIV21 cortical neurons from wild type or Prnp−/− mice were treated with or without Aβo for 5 min. Whole cell lysates were analyzed by anti-phospho-eEF2, anti-eEF2, or anti-PrP^C immunoblot. Aβo increased p-eEF2/eEF2 ratio to 210±20% of baseline in WT cultures (mean±sem, n=3), but there was no significant increase in Prnp−/− cultures. FIG. 2B: DIV21 cortical neurons from wild type mice were treated with the indicated human control or AD brain extracts (30 μg total protein/ml) for 5 min. Whole cell lysates were analyzed by anti-phospho-eEF2 or anti-eEF2 immunoblot. AD, but not control (Con), brain extracts increased p-eEF2/eEF2 ratio to 200±10% of untreated cultures (mean±sem, n=4). FIG. 2C: Wild type cortical neurons were treated with or without Aβo for 15 min. […] Whole cell lysates were analyzed by anti-phospho-SFK, anti-Fyn, anti-phospho-eEF2, or anti-eEF2 immunoblot. GAPDH served as a loading control. FIG. 2D: Quantification of phospho-eEF2 level normalized to eEF2 immunoreactivity from four independent experiments. Mean±sem; *, P<0.05, n.s., not significant; One-way ANOVA, with Tukey post-hoc pairwise comparisons.
Because spine turnover is dependent on protein translation machinery, and because both Aβo and Fyn have been linked to mGluR5, a downstream effector of mGluR5-regulated protein translation, the eukaryotic elongation factor 2 (eEF2), was considered. The eEF2 pathway is regulated by phosphorylation and is dysregulated in AD. A3o treatment of cortical neurons increases eEF2 phosphorylation at 5 min (FIG. 2A). Genetic analysis confirmed that the Aβo effect on eEF2 phosphorylation depends on PrP^C (FIG. 2A).
It was tested whether phosphorylation of eEF2 induced by Aβo depends on AZD0530-sensitive Fyn kinase activation. […] Thus, AZD0530 prevented Aβo/PrP-induced, Fyn-dependent neuronal signaling in vitro.

[2] = Dog toxicology studies (6 month and nine-month); type: in vivo
Source text: The body weight of dogs treated with different doses of saracatinib was plotted as a function of time. There were a […] (4 female and 4 male in each group), but a single sex (male) is shown here because the weight range is different between sexes. The trend for female dogs is similar but not shown. Values are mean±sem.

[3] = Dog exposure (Cmax and AUC) with oral dosing; type: in vivo
PS19 mice = assay: Morris water maze in P301S Tau (PS19) transgenic mice; type: in vivo, mouse; details: 8-month-old PS19 mice, 6 months of treatment, 5 mg/kg/d in diet
Source text: FIGS. 11A-11C illustrate that Fyn kinase inhibition prevents memory deficits in P301S Tau transgenic tice. FIG. 11A: Timeline of PS19 mouse treatment. FIG. 11B: Morris water maze probe trial for 8-month-old PS19 or WT mice after 6 months of AZD0530 or Vehicle treatment. Twenty four hours after the reverse learning trials in the Morris water maze, the submerged platform was removed and the fraction of 60 sec spent in the target quadrant where the hidden platform had been located previously was recorded. n=11-15/group, each dot is one mouse. Data are mean±SEM. Dashed line indicates random chance performance. […] Latency was measured as the time for the mouse to cross to the opaque box. n=16-18/group. […]
To generate chow containing chow for chronic dosing, the compound was incorporated into purified diet pellets by Research Diets, Inc. by dissolving the compound in a solution of 0.5% w/v Hydroxypropylmethylcellulose/0.1% w/v polysorbate 80 at 1.429 mg/ml. […] The dosage of the drug in the food was calculated to take into account the average amount of food eaten by a mouse in a single day per kg of weight and adjusted to be equivalent to ingesting 5 mg/kg per day.
The Morris water maze paradigm was performed as previously described (Kaufman et al., 2015, Ann Neurol 77:953-971). […] Latency was measured as the time that it took for the mouse to find and spend 1 second on the hidden platform. […]

[4] = saracatinib 1 hour prior to Aβo, Aβo 15 min

In the case of CN1CCN(CCOc2cc(OC3CCOCC3)c3c(Nc4c(Cl)ccc5c4OCO5)ncnc3c2)CC1 [saracatinib, N-(5-chloro-benzo[d][1,3]dioxol-4-yl)-7-(2-(4-methylpiperazin-1-yl)ethoxy)-5-(tetrahydro-2H-pyran-4-yloxy)quinazolin-4-amine], the “basal p-SFK levels” value ([1]; cortical neurons, saracatinib 1 hour) is reported as “suppressed”, the “Aβo stimulation of target kinase (p-SFK)” value [1, 4] is reported as “fully prevented” and the “Aβo-induced increase of eEF2 phosphorylation” value [1, 4] is reported as “fully blocked”. The body weight ([2]; nine-month study) was “continued weight gain”, the adverse symptoms ([2]; nine-month study, 0.5, 2 and 5 mg/kg/d, at 8.75 months) was “no obvious adverse symptoms” and the “human daily dose equivalent” value ([3]; dog 2 mg/kg/d) was 50 mg. For the same compound, the “human dose of equivalent exposure (Cmax and AUC)” value ([3]; dog 5 mg/kg, saracatinib free base in human) was 125 mg, the “dose dependence of exposure” value ([3]; dog, multiple dosing, 0.5 to 5 mg/kg oral daily dose) was “linear” and the “probe trial after reverse learning, time in target quadrant” value (PS19 mice) was “significantly improved the memory deficit”.
